Measured values: PubChem BioAssay (NCI)
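Tested at 5 concentrations; 48 h exposure; 96-well plates; endpoints linearly interpolated, else capped at highest concentration. GI50 marks 50% less growth. TGI is the concentration that stops growth completely.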

Legend:
Assay in all cases: inhibition of tumour cell growth, NCI panel, 48 h
[1] = system: HCT-116 colon
[2] = system: UACC-257 melanoma
[3] = system: SF-268 CNS
[4] = system: MDA-MB-435
[5] = system: A549 NSCLC
[6] = system: EKVX NSCLC
[7] = system: RPMI-8226 leukemia
[8] = system: LOX IMVI melanoma
[9] = system: NCI-H226 lung
[10] = system: SF-539 CNS

Which results are given for `COc1ccc2nc3cc([N+](=O)[O-])ccc3c(Nc3ccc(S(=O)(=O)NC(C)=O)cc3)c2c1`?
TGI [1]: > 100 µM; TGI [2]: > 100 µM; TGI [3]: > 100 µM; TGI [4]: > 100 µM; TGI [5]: > 100 µM; TGI [6]: > 100 µM; TGI [7]: > 100 µM; TGI [8]: > 100 µM; TGI [9]: > 100 µM; TGI [10]: > 100 µM

`Cc1cc(N2CCCC2)nc(N(CCNc2ccnc3cc(Cl)ccc23)Cc2ccco2)n1` was tested. Which GI50 [1] did it give?
The GI50 was 1.91 µM.

What about the TGI [1] of the same compound?
Its TGI is greater than 100 µM.

What about the GI50 [2] of the same compound?
The GI50 was 10.8 µM.

What about the TGI [2] of the same compound?
Its TGI is greater than 100 µM.

What about the GI50 [3] of the same compound?
Its GI50 is 11.7 µM.

What about the TGI [3] of the same compound?
The TGI was greater than 100 µM.

What about the GI50 [4] of the same compound?
Its GI50 is 3.33 µM.

What about the TGI [4] of the same compound?
The TGI was greater than 100 µM.

And the GI50 [5]?
Its GI50 is 5.9 µM.

What about the TGI [5] of the same compound?
Its TGI is greater than 100 µM.

What about the GI50 [6] of the same compound?
Its GI50 is 5.7 µM.

What about the TGI [6] of the same compound?
The TGI was greater than 100 µM.

And the GI50 [7]?
The GI50 was 2.02 µM.

And the TGI [7]?
The TGI was 4.5 µM.

And the GI50 [8]?
Its GI50 is 2.66 µM.

What about the TGI [8] of the same compound?
The TGI was 10.4 µM.

And the GI50 [9]?
The GI50 was 3.2 µM.

What about the TGI [9] of the same compound?
Its TGI is greater than 100 µM.

What about the GI50 [10] of the same compound?
Its GI50 is 3.27 µM.

And the TGI [10]?
Its TGI is 10.4 µM.

With `O=C(OCCN=c1c2ccccc2ccc2ccccc12)c1ccc([N+](=O)[O-])cc1` as the compound, how does the TGI [1] read?
Its TGI is greater than 100 µM.

And the TGI [2]?
The TGI was greater than 100 µM.

What about the TGI [3] of the same compound?
The TGI was greater than 100 µM.

And the TGI [4]?
The TGI was greater than 100 µM.

What about the TGI [5] of the same compound?
Its TGI is greater than 100 µM.

What about the TGI [6] of the same compound?
Its TGI is greater than 100 µM.

And the TGI [7]?
Its TGI is greater than 100 µM.

And the TGI [8]?
Its TGI is greater than 100 µM.

And the TGI [9]?
Its TGI is greater than 100 µM.

And the TGI [10]?
Its TGI is greater than 100 µM.

`Cc1cn(Cc2cnnn2CC2OC(n3cc(C)c(=O)[nH]c3=O)CC2O)c(=O)[nH]c1=O` (stereo not given) was tested. Which TGI [1] did it give?
The TGI was greater than 100 µM.

And the TGI [2]?
The TGI was greater than 100 µM.

And the TGI [3]?
The TGI was greater than 100 µM.

And the TGI [4]?
The TGI was greater than 100 µM.

And the TGI [5]?
Its TGI is greater than 100 µM.

What about the TGI [6] of the same compound?
The TGI was greater than 100 µM.

And the TGI [7]?
Its TGI is greater than 100 µM.

And the TGI [8]?
Its TGI is greater than 100 µM.

And the TGI [9]?
The TGI was greater than 100 µM.

And the TGI [10]?
The TGI was greater than 100 µM.

How did the TGI [1] turn out when `c1cn(C23C4C5C6C4C2C6C53)cn1` (stereo not given) was run?
The TGI was greater than 100 µM.

And the TGI [2]?
Its TGI is greater than 100 µM.

What about the TGI [3] of the same compound?
The TGI was greater than 100 µM.

What about the TGI [4] of the same compound?
The TGI was greater than 100 µM.

And the TGI [5]?
Its TGI is greater than 100 µM.

And the TGI [6]?
The TGI was greater than 100 µM.

And the TGI [7]?
The TGI was greater than 100 µM.

And the TGI [8]?
Its TGI is greater than 100 µM.

What about the TGI [9] of the same compound?
Its TGI is greater than 100 µM.

And the TGI [10]?
Its TGI is greater than 100 µM.

Which TGI [1] does the source give for `Cc1c(NC(=O)CSC(=S)N2CCN(Cc3ccccc3)CC2)c(=O)n(-c2ccccc2)n1C` here?
The TGI was greater than 100 µM.

What about the TGI [2] of the same compound?
The TGI was greater than 100 µM.

What about the TGI [3] of the same compound?
The TGI was greater than 100 µM.

What about the TGI [4] of the same compound?
Its TGI is greater than 100 µM.

What about the TGI [5] of the same compound?
The TGI was greater than 100 µM.

What about the TGI [6] of the same compound?
The TGI was greater than 100 µM.

And the TGI [7]?
Its TGI is greater than 100 µM.

What about the TGI [8] of the same compound?
Its TGI is greater than 100 µM.

What about the TGI [9] of the same compound?
Its TGI is greater than 100 µM.

And the TGI [10]?
The TGI was greater than 100 µM.

What does the source list for `CCOC(=O)c1nc2ccc(C(F)(F)F)cc2nc1Oc1cc(OC)cc(OC)c1`?
TGI [1]: > 100 µM; TGI [2]: > 100 µM; TGI [3]: > 100 µM; TGI [4]: > 100 µM; TGI [5]: > 100 µM; TGI [6]: > 100 µM; TGI [7]: > 100 µM; TGI [8]: > 100 µM; TGI [9]: > 100 µM; TGI [10]: > 100 µM

For `C/C(Nc1ccc(F)cc1)=C1/CCOC1=O`, which TGI [1] is on record?
Its TGI is greater than 100 µM.

And the TGI [2]?
Its TGI is greater than 100 µM.

And the TGI [3]?
The TGI was greater than 100 µM.

What about the TGI [4] of the same compound?
Its TGI is greater than 100 µM.

And the TGI [5]?
The TGI was greater than 100 µM.

And the TGI [6]?
Its TGI is greater than 100 µM.

What about the TGI [7] of the same compound?
Its TGI is greater than 100 µM.

What about the TGI [8] of the same compound?
The TGI was greater than 100 µM.

And the TGI [9]?
The TGI was greater than 100 µM.

What about the TGI [10] of the same compound?
Its TGI is greater than 100 µM.

How did the TGI [1] turn out when `COc1ccc2c(c1)c(CC(=O)O)c(C)n2C(=O)c1ccc(Cl)cc1` was run?
Its TGI is greater than 100 µM.

And the TGI [2]?
The TGI was greater than 100 µM.

And the TGI [3]?
Its TGI is greater than 100 µM.

What about the TGI [4] of the same compound?
The TGI was greater than 100 µM.

And the TGI [5]?
The TGI was greater than 100 µM.

What about the TGI [6] of the same compound?
The TGI was greater than 100 µM.

And the TGI [7]?
The TGI was greater than 100 µM.

What about the TGI [8] of the same compound?
The TGI was greater than 100 µM.

What about the TGI [9] of the same compound?
The TGI was greater than 100 µM.

What about the TGI [10] of the same compound?
Its TGI is greater than 100 µM.

What does the source list for `O=c1[nH]nc(-c2ccccc2)n1/N=C/c1cccnc1`?
TGI [1]: > 100 µM; TGI [2]: > 100 µM; TGI [3]: > 100 µM; TGI [4]: > 100 µM; TGI [5]: > 100 µM; TGI [6]: > 100 µM; TGI [7]: > 100 µM; TGI [8]: > 100 µM; TGI [9]: > 100 µM; TGI [10]: > 100 µM

With `CN(C)c1nc2oc(-c3ccccc3)c(-c3ccccc3)c2c2nnnn12` as the compound, how does the TGI [1] read?
Its TGI is greater than 100 µM.

And the TGI [2]?
Its TGI is greater than 100 µM.

And the TGI [3]?
The TGI was greater than 100 µM.

What about the TGI [4] of the same compound?
The TGI was greater than 100 µM.

And the TGI [5]?
Its TGI is greater than 100 µM.

And the TGI [6]?
Its TGI is greater than 100 µM.

What about the TGI [7] of the same compound?
Its TGI is greater than 100 µM.

What about the TGI [8] of the same compound?
Its TGI is greater than 100 µM.

And the TGI [9]?
The TGI was greater than 100 µM.

And the TGI [10]?
The TGI was greater than 100 µM.

What does the source list for `O=c1cc(N2CCN(c3cc(=O)n4ccccc4n3)CC2)oc2ccccc12`?
TGI [1]: > 100 µM; TGI [2]: > 71.8 µM; TGI [3]: > 65.3 µM; TGI [4]: > 100 µM; TGI [5]: > 87.8 µM; TGI [6]: > 31.6 µM; TGI [7]: 90.5 µM; TGI [8]: > 100 µM; TGI [9]: > 100 µM; TGI [10]: > 100 µM

How did the TGI [1] turn out when `CCN(CC)c1ccc2cc(C(=O)Nc3cccc4ccccc34)c(=N)oc2c1` was run?
Its TGI is greater than 100 µM.

What about the TGI [2] of the same compound?
Its TGI is greater than 100 µM.

And the TGI [3]?
The TGI was greater than 100 µM.

And the TGI [4]?
The TGI was greater than 100 µM.

What about the TGI [5] of the same compound?
Its TGI is greater than 100 µM.

And the TGI [6]?
Its TGI is greater than 100 µM.

What about the TGI [7] of the same compound?
Its TGI is greater than 100 µM.

And the TGI [8]?
Its TGI is greater than 100 µM.

And the TGI [9]?
Its TGI is greater than 100 µM.

What about the TGI [10] of the same compound?
Its TGI is greater than 100 µM.

`CN1CCN(CCCBr)CC1` was tested. Which TGI [1] did it give?
The TGI was greater than 100 µM.

What about the TGI [2] of the same compound?
The TGI was greater than 100 µM.

What about the TGI [3] of the same compound?
The TGI was greater than 100 µM.

And the TGI [4]?
Its TGI is greater than 100 µM.

What about the TGI [5] of the same compound?
The TGI was greater than 100 µM.

And the TGI [6]?
Its TGI is greater than 100 µM.

And the TGI [7]?
The TGI was greater than 100 µM.

What about the TGI [8] of the same compound?
Its TGI is greater than 100 µM.

What about the TGI [9] of the same compound?
Its TGI is greater than 100 µM.

What about the TGI [10] of the same compound?
Its TGI is greater than 100 µM.

For `N#Cc1ccccc1-c1nc2c3c(c(N)ccc3n1)C(=O)c1ccccc1-2`, which TGI [1] is on record?
Its TGI is greater than 100 µM.

And the TGI [2]?
The TGI was greater than 100 µM.

What about the TGI [3] of the same compound?
Its TGI is greater than 100 µM.

What about the TGI [4] of the same compound?
The TGI was greater than 100 µM.

And the TGI [5]?
The TGI was greater than 100 µM.

And the TGI [6]?
The TGI was greater than 100 µM.

What about the TGI [7] of the same compound?
The TGI was greater than 100 µM.

And the TGI [8]?
Its TGI is greater than 100 µM.

And the TGI [9]?
The TGI was greater than 100 µM.

What about the TGI [10] of the same compound?
The TGI was greater than 100 µM.

What does the source list for `CC1=NN(c2nc(N)nc(/C(C#N)=C/c3cccn3-c3cc(Cl)cc(Cl)c3)n2)C(C)(C)C1`?
TGI [1]: > 100 µM; TGI [2]: > 100 µM; TGI [3]: > 100 µM; TGI [4]: > 100 µM; TGI [5]: > 100 µM; TGI [6]: > 100 µM; TGI [7]: > 100 µM; TGI [8]: > 100 µM; TGI [9]: > 100 µM; TGI [10]: > 100 µM

Which TGI [1] does the source give for `COc1ccc(C)cc1Nc1nnc(-c2ccccc2N)s1` here?
The TGI was greater than 100 µM.

And the TGI [2]?
The TGI was greater than 100 µM.

And the TGI [3]?
Its TGI is greater than 100 µM.

What about the TGI [4] of the same compound?
The TGI was greater than 100 µM.

And the TGI [5]?
The TGI was greater than 100 µM.

What about the TGI [6] of the same compound?
Its TGI is 90.5 µM.

What about the TGI [7] of the same compound?
The TGI was 53.4 µM.

What about the TGI [8] of the same compound?
Its TGI is greater than 100 µM.

And the TGI [9]?
The TGI was greater than 100 µM.

What about the TGI [10] of the same compound?
Its TGI is greater than 100 µM.
